Biological target: T1, human TLR9 (Homo sapiens, UniProt Q9NR96)
T1 construct: host or cells: HEK-Blue cells
T1 sequence (Q9NR96 26-1032): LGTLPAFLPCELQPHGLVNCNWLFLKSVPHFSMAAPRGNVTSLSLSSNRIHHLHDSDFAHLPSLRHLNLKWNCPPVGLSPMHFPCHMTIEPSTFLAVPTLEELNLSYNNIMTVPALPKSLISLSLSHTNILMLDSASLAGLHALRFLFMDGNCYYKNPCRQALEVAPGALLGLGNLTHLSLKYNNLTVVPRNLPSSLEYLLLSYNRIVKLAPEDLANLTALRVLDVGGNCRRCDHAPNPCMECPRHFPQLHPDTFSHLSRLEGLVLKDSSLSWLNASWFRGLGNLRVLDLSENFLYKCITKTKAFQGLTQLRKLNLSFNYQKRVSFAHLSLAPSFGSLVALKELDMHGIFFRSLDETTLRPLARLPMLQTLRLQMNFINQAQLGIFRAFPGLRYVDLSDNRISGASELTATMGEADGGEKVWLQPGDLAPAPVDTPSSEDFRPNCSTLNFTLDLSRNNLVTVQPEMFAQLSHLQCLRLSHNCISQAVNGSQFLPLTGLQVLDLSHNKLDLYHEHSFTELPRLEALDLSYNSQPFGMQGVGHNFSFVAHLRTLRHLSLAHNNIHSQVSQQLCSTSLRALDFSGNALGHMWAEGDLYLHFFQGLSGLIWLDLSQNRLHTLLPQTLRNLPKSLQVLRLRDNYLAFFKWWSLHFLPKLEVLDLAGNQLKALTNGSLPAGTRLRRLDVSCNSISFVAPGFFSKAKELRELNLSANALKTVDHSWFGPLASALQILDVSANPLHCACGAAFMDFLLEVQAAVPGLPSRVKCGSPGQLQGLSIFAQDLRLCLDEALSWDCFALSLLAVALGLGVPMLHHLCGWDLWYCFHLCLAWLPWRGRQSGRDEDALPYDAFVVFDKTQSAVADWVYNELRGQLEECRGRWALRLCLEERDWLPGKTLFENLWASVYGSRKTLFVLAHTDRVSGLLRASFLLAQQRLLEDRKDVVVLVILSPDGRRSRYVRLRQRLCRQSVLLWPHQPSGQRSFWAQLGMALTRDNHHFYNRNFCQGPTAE
Assay: TLR9 inhibition reporter assay (HEK-Blue cells, SEAP reporter)
Type: cell-based
Details: HEK-Blue cells overexpressing human TLR9, stimulated with ODN2006 5 nM, 22 hour incubation
How it was run: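 HEK-Blue cells overexpressing human TLR9 (25,000 cells/well), NF-κB/AP-1-driven SEAP reporter. Compounds at 0.05 nM–50 μM final, 22 h at 37 °C, 5% CO2 with agonist. SEAP detected with HEK-Blue Detection medium; % inhibition versus agonist plus DMSO and known-inhibitor wells.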

SMILES	IC50
Cc1nc(-c2ccc(C3(O)CC4CCC(C3)N4C(C)C)c(F)c2)cc2c1cc(-c1ccc(S(C)(=O)=O)cc1)n2C [Example 100, (1R,3r,5S)-3-(4-(1,4-dimethyl-2-(4-(methylsulfonyl)phenyl)-1H-pyrrolo[3,2-c]pyridin-6-yl)-2-fluorophenyl)-8-isopropyl-8-azabicyclo[3.2.1]octan-3-ol]	184 nM
COc1ccc(-c2c(C)[nH]c3cnc(C4CCN(C5CCN(C(=O)c6ccccc6)CC5)CC4)cc23)cc1OC [Example 14, (4-(3-(3,4-dimethoxyphenyl)-2-methyl-1H-pyrrolo[2,3-c]pyridin-5-yl)-[1,4′-bipiperidin]-1′-yl) (phenyl)methanone]	313 nM
COc1ccc(-c2c(C)n(C)c3cnc(C4CCN(C5CCN(CC(C)C)CC5)CC4)cc23)cc1OC [Example 17, 3-(3,4-dimethoxyphenyl)-5-(1′-isobutyl-[1,4′-bipiperidin]-4-yl)-1,2-dimethyl-1H-pyrrolo[2,3-c]pyridine]	19 nM
Cc1nc(-c2ccc(C3(O)CCN(C(C)(C)C)CC3)c(F)c2)cc2c1cc(-c1ccc(S(C)(=O)=O)cc1)n2C [Example 104, 1-(tert-butyl)-4-(4-(1,4-dimethyl-2-(4-(methylsulfonyl)phenyl)-1H-pyrrolo[3,2-c]pyridin-6-yl)-2-fluorophenyl)piperidin-4-ol]	161 nM

Further lines, results first:

IC50	SMILES
250 nM	Cc1nc(-c2ccc(N3CCN4CCCC4C3)c(F)c2F)cc2c1cc(-c1ccc(S(C)(=O)=O)cc1)n2C (stereo not drawn) [Example 99, 6-(2,3-difluoro-4-(hexahydropyrrolo[1,2-a]pyrazin-2(1H)-yl)phenyl)-1,4-dimethyl-2-(4-(methylsulfonyl)phenyl)-1H-pyrrolo[3,2-c]pyridine]
57 nM	CC(C)N1CCN(c2ccc(-c3cc4c(cc(-c5ccc(S(C)(=O)=O)cc5)n4C)c(C(C)(C)O)n3)cc2)CC1 [Example 118, 2-[6-[4-(4-isopropylpiperazin-1-yl)phenyl]-1-methyl-2-(4-methylsulfonylphenyl)pyrrolo[3,2-c]pyridin-4-yl]propan-2-ol]

Reference: US12590091B2, “1H-pyrrolo[3,2-C]pyridine and 1H-pyrrolo[2,3-C]pyridine derivatives as TLR9 inhibitors for the treatment of fibrosis” (BRISTOL-MYERS SQUIBB COMPANY, priority 2020, dated 2026)
